Source: patent US12269816B2, “Benzothiophene compound, preparation method therefor and use thereof” (SICHUAN KELUN-BIOTECH BIOPHARMACEUTICAL CO., LTD., priority 2019, dated 2025)

Test system: STING-mediated interferon (IFN) signal reporter gene in THP1-Blue™ ISG cells
Test: STING-mediated interferon (IFN) signal SEAP reporter gene assay in THP1-Blue ISG cells
Type: cell-based, human
Settings: for EC50: Homo sapiens, 16 h incubation, SEAP reporter read at OD620nm; for Emax (OD620nm): highest OD620nm value generated by stimulation of the compound, 16 h; for agonistic effect on the STING-mediated Interferon (IFN) signal pathway: result in words
From the text: In this experiment, the activity of the SEAP (secreted embryonic alkaline phosphatase) reporter gene regulated by the IFN regulatory factor (interferon regulatory factor) was detected in the THP1-Blue™ ISG cells (InvivoGen) to evaluate the agonistic effect of the compounds to be tested on the STING-mediated IFN signal pathway at the cellular level.
The THP1-Blue™ ISG cells (InvivoGen) in the logarithmic phase were centrifuged, and resuspended in a cell culture solution to a density of 2×10^6 cells/ml. The cell suspension was inoculated in a 96-well cell culture plate (Corning) at 50 μL/well. The mother liquor of the compound to be tested was gradiently diluted with a cell culture solution to obtain a 2× working concentration diluted solution (control compounds 1 and 2 were diluted at a 3-fold gradient: 200, 66.67, 22.22, 7.41, 2.47, 0.82, 0.27 and 0 μM; compounds 1, 2, 4, 6, 8, and 23 were diluted at a 8-fold gradient: 60, 7.5, 0.94, 0.12, 0.015, 0.0018, 0.00023 and 0 μM; and compounds 3 and 5 were diluted at a 10-fold gradient: 10, 1, 0.1, 0.01, 0.001, 0.0001, 0.00001 and 0 μM). The 2× working concentration diluted solution of the compound was added into a 96-well plate (50 μl of the culture solution containing 2% DMSO was added into the negative control well) at 50 μL/well. The culture plate was then placed in a cell incubator, and incubated for 16 h. After the cell incubation, 10 μL of the cell culture supernatant was transferred to a 96-well plate, and a QUANTI-Blue (InvivoGen) solution was added at 90 μL/well. The cells were incubated at 37° C. for 3 h. The absorbance at 620 nm (OD620nm) was read with a microplate reader.
In the table, EC50 refers to the concentration of a compound when ODM620nm value generated by stimulation of the compound reaches half of Emax; and Emax refers to the highest OD620nm value generated by stimulation of the compound.

EC50 [nM] | SMILES | Emax (OD620nm) | agonistic effect on the STING-mediated Interferon (IFN) signal pathway
974 | CCOC(=O)CCC(=O)c1cc2cc(OCCCOc3cc4cc(C(=O)N(C)CCCOC)sc4cc3OC)c(OC)cc2s1 [Compound 23, ethyl 4-(6-methoxy-5-(3-((6-methoxy-2-((3-methoxypropyl)(methyl)carbamoyl)benzo[b]thiophen-5-yl)oxy)propoxy)benzo[b]thiophen-2-yl)-4-oxobutyrate] | 1.74 | strong agonistic effects
1.4 | CCOC(=O)CCC(=O)c1cc2cc(OCCCOc3cc4sc(C(=O)N(C)CCC(=O)OCC)cc4cc3OC)c(OC)cc2s1 [Compound 5, ethyl 4-(5-(3-((2-((3-ethoxy-3-oxopropyl)(methyl)carbamoyl)-5-methoxybenzo[b]thiophen-6-yl)oxy)propoxy)-6-methoxybenzo[b]thiophen-2-yl)-4-oxobutyrate] | 1.94 | strong agonistic effects
